Measured values: PubChem BioAssay (NCI)
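Step 1: Grow cells in 96-well plates. Step 2: Expose to compound for 48 hours at 5 concentrations. Step 3: Interpolate endpoints linearly; if unreached, use highest concentration. GI50 = concentration required for 50% inhibition of growth. TGI is the concentration that stops growth completely.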

What was measured:
Test in all cases: NCI tumour cell line growth inhibition, 48 h
NCI-H23 lung = system: NCI-H23 lung
NCI-H460 lung = system: NCI-H460 lung
NCI-H522 lung = system: NCI-H522 lung
NCI/ADR-RES ovarian = system: NCI/ADR-RES ovarian
OVCAR-3 ovarian = system: OVCAR-3 ovarian
OVCAR-4 ovarian = system: OVCAR-4 ovarian
OVCAR-5 ovarian = system: OVCAR-5 ovarian
OVCAR-8 ovarian = system: OVCAR-8 ovarian
PC-3 prostate = system: PC-3 prostate
RPMI-8226 leukemia = system: RPMI-8226 leukemia
RXF 393 renal = system: RXF 393 renal
SF-268 CNS = system: SF-268 CNS
SF-295 CNS = system: SF-295 CNS
SF-539 CNS = system: SF-539 CNS
SK-MEL-2 melanoma = system: SK-MEL-2 melanoma
SK-MEL-28 melanoma = system: SK-MEL-28 melanoma
SK-MEL-5 melanoma = system: SK-MEL-5 melanoma
SK-OV-3 ovarian = system: SK-OV-3 ovarian
SN12C renal = system: SN12C renal
SNB-19 CNS = system: SNB-19 CNS
SNB-75 CNS = system: SNB-75 CNS
SR leukemia = system: SR leukemia
SW-620 colon = system: SW-620 colon
T-47D breast = system: T-47D breast
TK-10 renal = system: TK-10 renal
U251 CNS = system: U251 CNS
UACC-257 melanoma = system: UACC-257 melanoma
UACC-62 melanoma = system: UACC-62 melanoma
UO-31 renal = system: UO-31 renal

Q: What does the source list for O=Cc1cn(Cc2ccc(Cl)cc2)c2ccccc12?
A: GI50 (NCI-H23 lung): 8.37 µM; TGI (NCI-H23 lung): > 100 µM; GI50 (NCI-H460 lung): 0.115 µM; TGI (NCI-H460 lung): 11.2 µM; GI50 (NCI-H522 lung): 73.2 µM; TGI (NCI-H522 lung): > 100 µM; GI50 (NCI/ADR-RES ovarian): 13.9 µM; TGI (NCI/ADR-RES ovarian): > 100 µM; GI50 (OVCAR-3 ovarian): 6.64 µM; TGI (OVCAR-3 ovarian): 61.7 µM; GI50 (OVCAR-4 ovarian): 4.39 µM; TGI (OVCAR-4 ovarian): > 100 µM; GI50 (OVCAR-5 ovarian): 0.082 µM; TGI (OVCAR-5 ovarian): 0.659 µM; GI50 (OVCAR-8 ovarian): 23.5 µM; TGI (OVCAR-8 ovarian): > 100 µM; GI50 (PC-3 prostate): 12.8 µM; TGI (PC-3 prostate): 73.2 µM; GI50 (RPMI-8226 leukemia): 7.14 µM; TGI (RPMI-8226 leukemia): > 100 µM; GI50 (RXF 393 renal): 4.59 µM; TGI (RXF 393 renal): 51.8 µM; GI50 (SF-268 CNS): 21.4 µM; TGI (SF-268 CNS): > 100 µM; GI50 (SF-295 CNS): 0.992 µM; TGI (SF-295 CNS): 34.9 µM; GI50 (SF-539 CNS): 16.6 µM; TGI (SF-539 CNS): 50.3 µM; GI50 (SK-MEL-2 melanoma): 8.49 µM; TGI (SK-MEL-2 melanoma): 66.1 µM; GI50 (SK-MEL-28 melanoma): 33.6 µM; TGI (SK-MEL-28 melanoma): > 100 µM; GI50 (SK-MEL-5 melanoma): 8.18 µM; TGI (SK-MEL-5 melanoma): 22.3 µM; GI50 (SK-OV-3 ovarian): 1.84 µM; TGI (SK-OV-3 ovarian): 44.8 µM; GI50 (SN12C renal): 14.9 µM; TGI (SN12C renal): > 100 µM; GI50 (SNB-19 CNS): 19.4 µM; TGI (SNB-19 CNS): > 100 µM; GI50 (SNB-75 CNS): 8.26 µM; TGI (SNB-75 CNS): > 100 µM; GI50 (SR leukemia): 16.5 µM; TGI (SR leukemia): > 79.4 µM; GI50 (SW-620 colon): 13.2 µM; TGI (SW-620 colon): > 100 µM; GI50 (T-47D breast): 1.84 µM; TGI (T-47D breast): 69.7 µM; GI50 (TK-10 renal): 0.162 µM; TGI (TK-10 renal): 1.52 µM; GI50 (U251 CNS): 13.3 µM; TGI (U251 CNS): > 100 µM; GI50 (UACC-257 melanoma): 2.05 µM; TGI (UACC-257 melanoma): 7.44 µM; GI50 (UACC-62 melanoma): 1.32 µM; TGI (UACC-62 melanoma): 9.09 µM; GI50 (UO-31 renal): 3.35 µM; TGI (UO-31 renal): 45.4 µM
